Consider eleven compounds from ChEMBL document CHEMBL1201862, “PubChem BioAssay data set” (2004).

Test systems include 786-0; A549; CAKI-1; CCRF-CEM; IGROV-1; K562; KM12; LOX IMVI; LXFL 529; MDA-MB-435; MDA-N; MOLT-4; NCI-H522; OVCAR-3; RPMI-8226; SF-268; SK-MEL-5; SW-620; UACC-62; UO-31.
What all share (assay): growth of human tumour cells (NCI), 48 h

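Test compounds were applied to cells in 96-well plates for 48 hours at 5 doses. GI50: concentration for 50% inhibition of growth.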 The source made the active and inactive calls. No stated cut-off is given here; in the data, active = GI50 up to about 1.1 µM and inactive = higher.

Consider `COc1ccc2c(-c3cc4ccccc4o3)cc(=O)oc2c1`, for which the GI50 in the assay on 786-0 is 25.8 µM (inactive); in the assay with A549, 44 µM (inactive); with CAKI-1 it was 40.6 µM (inactive); in the assay on CCRF-CEM, > 100 µM (inactive); in the assay on IGROV-1 it was 41.3 µM (inactive); in the assay with K562, > 100 µM (inactive). The GI50 in the assay on KM12 was 98.2 µM (inactive); in the assay on LOX IMVI, 60.7 µM (inactive); in the assay with LXFL 529, > 76.2 µM (inactive); in the assay on MDA-MB-435, > 100 µM (inactive); with MDA-N it was > 76.6 µM (inactive); in the assay on MOLT-4, > 100 µM (inactive). Besides, the GI50 in the assay with NCI-H522 is 37.2 µM (inactive); in the assay on OVCAR-3, 16.6 µM (inactive); with RPMI-8226 it was > 88.7 µM (inactive); in the assay with SF-268, 25.3 µM (inactive); with SK-MEL-5 it was 40.1 µM (inactive); in the assay with SW-620, > 100 µM (inactive). The results for the GI50 with UACC-62 and with UO-31 were 67.5 µM (inactive) and 15 µM (inactive), respectively.

Regarding `CCOC(=N)/C(=C1\OC(=N)C(c2ccc(Cl)cc2)=C1O)c1ccc(Cl)cc1`, the GI50 with 786-0 was 17.8 µM (inactive); in the assay with A549 it was 23.4 µM (inactive); in the assay with CAKI-1 it was 23.2 µM (inactive); with CCRF-CEM it was 18.2 µM (inactive); with IGROV-1, 28.9 µM (inactive); in the assay on K562, 19.8 µM (inactive). In addition, the GI50 was 18.4 µM (inactive) in the assay on KM12; 13.9 µM (inactive) with LOX IMVI; 14.7 µM (inactive) with LXFL 529; 17.9 µM (inactive) in the assay with MOLT-4; 15 µM (inactive) in the assay with NCI-H522; 18 µM (inactive) in the assay on OVCAR-3. The GI50 in the assay on RPMI-8226 was 14.8 µM (inactive); with SF-268, 14.5 µM (inactive); in the assay on SW-620, 17.6 µM (inactive); in the assay with UACC-62, 15.5 µM (inactive); with UO-31, 17.5 µM (inactive).

`O=C(N/C(=C\c1ccc(/C=C(\NC(=O)c2ccccc2)c2nc3c(O)nc(S)nc3[nH]2)cc1)c1nc2c(O)nc(S)nc2[nH]1)c1ccccc1`: the GI50 in the assay on 786-0 is > 100 µM (inactive); in the assay with A549 it was > 100 µM (inactive); with CAKI-1 it was > 100 µM (inactive); in the assay with CCRF-CEM it was 26.2 µM (inactive); in the assay with IGROV-1, > 100 µM (inactive); with K562, 30.3 µM (inactive). Further, the GI50 is > 100 µM (inactive) in the assay with KM12; 38 µM (inactive) with LOX IMVI; 35.9 µM (inactive) in the assay with LXFL 529; 43 µM (inactive) in the assay on MOLT-4; 14.6 µM (inactive) in the assay on NCI-H522; > 100 µM (inactive) in the assay on OVCAR-3. For the same compound, the GI50 was 29.4 µM (inactive) in the assay on RPMI-8226; 57.9 µM (inactive) in the assay on SF-268; 64.4 µM (inactive) in the assay with SK-MEL-5; 46.6 µM (inactive) in the assay with SW-620; 34.3 µM (inactive) in the assay with UACC-62; > 100 µM (inactive) with UO-31.

`COc1cc(C(C)O)c[n+](CCC2CNc3ccccc32)c1` (stereo not given): the GI50 with 786-0, in the assay on A549, in the assay with CAKI-1, with CCRF-CEM, in the assay with IGROV-1 and with K562 was > 100 µM (inactive) throughout. Moreover, the GI50 with KM12 was > 100 µM (inactive); with LOX IMVI, > 100 µM (inactive); with LXFL 529, > 100 µM (inactive); in the assay with MOLT-4 it was > 100 µM (inactive); with NCI-H522, > 100 µM (inactive); in the assay with OVCAR-3 it was 26.1 µM (inactive). In addition, the GI50 was > 100 µM (inactive) with RPMI-8226; 27 µM (inactive) in the assay on SF-268; > 100 µM (inactive) with SK-MEL-5; > 100 µM (inactive) in the assay on SW-620; > 100 µM (inactive) with UACC-62; > 100 µM (inactive) with UO-31.

Take `O/N=C1/CCC/C1=C\c1ccccc1`: the GI50 with 786-0 was > 100 µM (inactive); with A549, > 100 µM (inactive); in the assay with CAKI-1, > 100 µM (inactive); in the assay with CCRF-CEM, > 100 µM (inactive); with IGROV-1, > 100 µM (inactive); in the assay with K562, 74.1 µM (inactive). Besides, the GI50 was > 100 µM (inactive) in the assay on KM12; > 100 µM (inactive) with LOX IMVI; > 100 µM (inactive) in the assay with LXFL 529; 42.6 µM (inactive) in the assay with MOLT-4; 31 µM (inactive) with NCI-H522; > 100 µM (inactive) in the assay on OVCAR-3. Moreover, the GI50 with RPMI-8226, in the assay with SF-268, with SK-MEL-5, with SW-620, with UACC-62 and with UO-31 was > 100 µM (inactive) throughout.

As for `Cc1ccc(NC(=O)CCc2nc(N)nc(N)c2-c2ccccc2)cc1C`, the GI50 with 786-0, with A549, in the assay with CAKI-1, in the assay with CCRF-CEM, in the assay on IGROV-1 and in the assay with K562 was > 100 µM (inactive) throughout. Further, the GI50 in the assay with KM12, with LXFL 529, with MOLT-4, with NCI-H522, in the assay with OVCAR-3 and in the assay on RPMI-8226 was > 100 µM (inactive) in each case. Moreover, the GI50 in the assay with SF-268, in the assay on SK-MEL-5, in the assay with SW-620, in the assay with UACC-62 and in the assay on UO-31 was > 100 µM (inactive) in each case.

As to `O=C(C[n+]1ccccc1)N/N=C(/CCC(=O)N(Cc1ccccc1)Cc1ccccc1)CC(=O)c1ccccc1`, the GI50 with 786-0, with A549, in the assay with CAKI-1, in the assay on CCRF-CEM, in the assay on IGROV-1 and with K562 was > 100 µM (inactive) each time. For the same compound, the GI50 in the assay on KM12, in the assay on LOX IMVI, in the assay on LXFL 529, in the assay on MOLT-4, with NCI-H522 and in the assay on OVCAR-3 was > 100 µM (inactive) throughout. In addition, the GI50 in the assay on RPMI-8226, in the assay on SF-268, with SK-MEL-5, with SW-620, in the assay on UACC-62 and in the assay with UO-31 was > 100 µM (inactive) throughout.

For `O=[N+]([O-])c1ccccc1/C=N/C12CC3CC(CC(C3)C1)C2`, the GI50 is 52.4 µM (inactive) in the assay on 786-0; > 100 µM (inactive) in the assay on A549; 49.5 µM (inactive) in the assay with CAKI-1; 30.9 µM (inactive) in the assay with CCRF-CEM; > 100 µM (inactive) in the assay on IGROV-1; 29.8 µM (inactive) with K562. Further, the GI50 in the assay on KM12 was 37.3 µM (inactive); with LOX IMVI, 47.4 µM (inactive); in the assay on LXFL 529 it was 45.5 µM (inactive); in the assay with MOLT-4, 34 µM (inactive); in the assay on NCI-H522 it was > 100 µM (inactive); in the assay with OVCAR-3 it was 32.3 µM (inactive). The GI50 in the assay on RPMI-8226 is 34 µM (inactive); with SF-268, > 100 µM (inactive); in the assay with SK-MEL-5 it was 61.4 µM (inactive); with SW-620, 46.6 µM (inactive); with UACC-62, > 100 µM (inactive); in the assay with UO-31 it was > 100 µM (inactive).

`CC(C)c1c2[nH]c3ccccc3c2c(C(C)C)c2[nH]c3ccccc3c12`: the GI50 was > 52.5 µM (inactive) in the assay with 786-0; > 100 µM (inactive) in the assay with A549; > 76.6 µM (inactive) in the assay on CAKI-1; > 52.5 µM (inactive) in the assay on CCRF-CEM; > 100 µM (inactive) with IGROV-1; 7.78 µM (inactive) with K562. Moreover, the GI50 in the assay with KM12 is 29.9 µM (inactive); with LOX IMVI, 35.5 µM (inactive); with LXFL 529, > 100 µM (inactive); in the assay with MOLT-4 it was > 63.2 µM (inactive); with NCI-H522, > 78.7 µM (inactive); with OVCAR-3, > 54.1 µM (inactive). The GI50 was 17.7 µM (inactive) in the assay with RPMI-8226; > 100 µM (inactive) in the assay on SF-268; > 100 µM (inactive) with SK-MEL-5; > 82 µM (inactive) in the assay on SW-620; > 100 µM (inactive) in the assay with UACC-62; > 100 µM (inactive) in the assay with UO-31.

`CC1(C)OC2CC3COC(=O)C3CC2O1` (stereo not given): the GI50 in the assay on 786-0, in the assay on A549, in the assay on CAKI-1, in the assay with CCRF-CEM, with IGROV-1 and with K562 was > 100 µM (inactive) throughout. Also, the GI50 in the assay on KM12, in the assay with LOX IMVI, in the assay on LXFL 529, in the assay on MOLT-4, with NCI-H522 and with OVCAR-3 was > 100 µM (inactive) throughout. Moreover, the GI50 in the assay on RPMI-8226, with SF-268, with SK-MEL-5, in the assay with SW-620, with UACC-62 and in the assay with UO-31 was > 100 µM (inactive) each time.

In the case of `CC[C@@]1(O)C(=O)OCc2c1cc1n(c2=O)Cc2cc3c(N)cccc3nc2-1` [9-AMINOCAMPTOTHECIN], the GI50 is < 0.01 µM (active) in the assay with 786-0; 0.0188 µM (active) with A549; < 0.01 µM (active) in the assay on CAKI-1; < 0.0369 µM (active) in the assay on CCRF-CEM; 0.246 µM (active) in the assay with IGROV-1; 0.112 µM (active) with K562. Besides, the GI50 is 0.23 µM (active) with KM12; < 0.01 µM (active) in the assay on LOX IMVI; 0.244 µM (active) in the assay with LXFL 529; 0.118 µM (active) in the assay on MDA-MB-435; 0.229 µM (active) in the assay with MDA-N; < 0.01 µM (active) with MOLT-4. Also, the GI50 in the assay with NCI-H522 was 0.0181 µM (active); with OVCAR-3, 0.207 µM (active); in the assay with RPMI-8226, 0.0764 µM (active); with SF-268, < 0.01 µM (active); in the assay with SK-MEL-5 it was 0.0118 µM (active); in the assay on SW-620 it was 0.0321 µM (active). The GI50 in the assay with UACC-62 is < 0.0102 µM (active); in the assay with UO-31, 0.0175 µM (active).
